The values below come from patent publication US12156523B2 (priority 2017, dated 2024).

SMILES strings stand for the structures. Bounds are passed on as bounds.

For test [1], the system named is Pyricularia oryzae. Nature of the test: whole plant or invertebrate. The class given is in vivo. Particulars: soil, read-out: Control value (number of lesions at the second leaf).
Test [2] has as its system Pyricularia oryzae. Briefly: whole plant or invertebrate. Type of test: in vivo. The conditions noted are these: foliar, read-out: Control value (number of lesions at the second leaf).

Regarding `COc1ccccc1OC(=O)c1cc(F)nc(F)c1F` [Example 1-103], in the test on Pyricularia oryzae [1], the pest or weed control at 10 µg/mL was not below 80%. For the same compound, the pest or weed control at 200 ppm with Pyricularia oryzae [2] is not below 80%.
With `O=C(Nc1ccccc1)c1cc(F)nc(F)c1F` [Example 1-98], in the test with Pyricularia oryzae [1], the pest or weed control at 10 µg/mL is not below 80%. For the same compound, the pest or weed control at 200 ppm in the test on Pyricularia oryzae [2] is not below 80%.
On to `COc1cccc(NC(=O)c2cc(F)nc(F)c2F)c1` [Example 1-44], for which the pest or weed control at 10 µg/mL in the test with Pyricularia oryzae [1] is not below 80%. For the same compound, the pest or weed control at 25 ppm with Pyricularia oryzae [2] was not below 80%.
In the case of `N#Cc1ccc(OC(=O)c2cc(F)nc(F)c2)cc1` [Example 1-204], the pest or weed control at 10 µg/mL in the test with Pyricularia oryzae [1] is not below 80%. In addition, the pest or weed control at 200 ppm with Pyricularia oryzae [2] is not below 80%.
Regarding `CC(C)Oc1ccc(NC(=O)c2cc(F)nc(F)c2F)cc1` [Example 1-59], in the test with Pyricularia oryzae [1], the pest or weed control at 10 µg/mL was not below 80%. In addition, the pest or weed control at 25 ppm in the test with Pyricularia oryzae [2] was not below 80%.
As for `COC(=O)CNC(=O)c1cc(F)nc(F)c1F` [Example 1-86], in the test with Pyricularia oryzae [1], the pest or weed control at 10 µg/mL is not below 80%. Moreover, the pest or weed control at 200 ppm in the test with Pyricularia oryzae [2] was not below 80%.
Turning to `O=C(Nc1ccc([N+](=O)[O-])cc1)c1cc(F)nc(F)c1` [Example 1-176], in the test on Pyricularia oryzae [1], the pest or weed control at 10 µg/mL is not below 80%. The pest or weed control at 200 ppm in the test on Pyricularia oryzae [2] was not below 80%.
Turning to `CCc1cccc(NC(=O)c2cc(F)nc(F)c2)c1` [Example 1-168], in the test on Pyricularia oryzae [1], the pest or weed control at 10 µg/mL was not below 80%. In the test on Pyricularia oryzae [2], the pest or weed control at 25 ppm is not below 80% and the pest or weed control at 200 ppm is not below 80%.
`CC(=O)c1cccc(NC(=O)c2cc(F)nc(F)c2)c1` [Example 1-190]: the pest or weed control at 10 µg/mL in the test with Pyricularia oryzae [1] is not below 80%. The pest or weed control at 200 ppm with Pyricularia oryzae [2] was not below 80%.
Turning to `Cc1ccc(NC(=O)c2cc(F)nc(F)c2)cc1Cl` [Example 1-133], the pest or weed control at 10 µg/mL with Pyricularia oryzae [1] is not below 80%. In addition, the pest or weed control at 200 ppm in the test on Pyricularia oryzae [2] was not below 80%.
In the case of `CC(C)c1ccc(NC(=O)c2cc(F)nc(F)c2)cc1` [Example 1-179], the pest or weed control at 10 µg/mL in the test on Pyricularia oryzae [1] was not below 80%. The pest or weed control at 200 ppm in the test on Pyricularia oryzae [2] was not below 80%.
With `O=C(Nc1nccs1)c1cc(F)nc(F)c1F` [Example 1-18], the pest or weed control at 10 µg/mL in the test on Pyricularia oryzae [1] is not below 80%. Besides, the pest or weed control at 200 ppm in the test on Pyricularia oryzae [2] was not below 80%.
As to `O=C(Nc1ccc2c(c1)CCCC2)c1cc(F)nc(F)c1F` [Example 1-3], the pest or weed control at 10 µg/mL with Pyricularia oryzae [1] was not below 80%. For the same compound, the pest or weed control at 200 ppm in the test on Pyricularia oryzae [2] is not below 80%.
Consider `CC(C)c1cccc(NC(=O)c2cc(F)nc(F)c2)c1` [Example 1-178], for which the pest or weed control at 10 µg/mL in the test with Pyricularia oryzae [1] was not below 80%. Besides, the pest or weed control at 200 ppm in the test with Pyricularia oryzae [2] is not below 80%.
On to `O=C(Nc1cccc([N+](=O)[O-])c1)c1cc(F)nc(F)c1` [Example 1-175], for which the pest or weed control at 10 µg/mL in the test on Pyricularia oryzae [1] is not below 80%. Moreover, the pest or weed control at 200 ppm in the test on Pyricularia oryzae [2] was not below 80%.
In the case of `COc1cc(NC(=O)c2cc(F)nc(F)c2)cc(OC)c1` [Example 1-132], the pest or weed control at 10 µg/mL in the test with Pyricularia oryzae [1] was not below 80%. For the same compound, the pest or weed control at 200 ppm with Pyricularia oryzae [2] was not below 80%.
Turning to `O=C(OCc1cccc(Cl)c1)c1cc(F)nc(F)c1F` [Example 1-105], the pest or weed control at 10 µg/mL in the test with Pyricularia oryzae [1] was not below 80%. The pest or weed control at 200 ppm in the test on Pyricularia oryzae [2] is not below 80%.
Regarding `COc1cccc(OC(=O)c2cc(F)nc(F)c2)c1` [Example 1-187], the pest or weed control at 10 µg/mL in the test on Pyricularia oryzae [1] is not below 80%. In the test on Pyricularia oryzae [2], the pest or weed control at 200 ppm is not below 80%.
For the compound `CCCCc1ccc(NC(=O)c2cc(F)nc(F)c2)cc1` [Example 1-180], the pest or weed control at 10 µg/mL with Pyricularia oryzae [1] was not below 80%. Moreover, the pest or weed control at 200 ppm in the test on Pyricularia oryzae [2] is not below 80%.
Regarding `O=C(OCc1ccc(Cl)nc1)c1cc(F)nc(F)c1` [Example 1-174], in the test with Pyricularia oryzae [1], the pest or weed control at 10 µg/mL was not below 80%. In the test with Pyricularia oryzae [2], the pest or weed control at 25 ppm was not below 80% and the pest or weed control at 200 ppm was not below 80%.
As for `Fc1cc(C2=NCCO2)cc(F)n1` [Example 4-4], the pest or weed control at 10 µg/mL in the test with Pyricularia oryzae [1] is not below 80%. In the test on Pyricularia oryzae [2], the pest or weed control at 200 ppm is not below 80%.
